Test results from patent publication US8324264B1, “Inhibitors of bacterial biofilms and related methods” (Sequoia Sciences, Inc., priority 2011, dated 2012).
Values after ≈ are worked out from the molar mass of the structure shown. Where two headings read alike, the source gives them in different places.

How the values were obtained:
P. aeruginosa biofilms = assay: Biofilm growth assay (spreading biofilm on semi-solid agar), P. aeruginosa; format: cell-based; details: for IC85: Pseudomonas aeruginosa, read-out: P. aeruginosa: concentration that reduces the area of the spreading biofilm by greater than or equal to 85%
From the text: (§1) “Biofilm Growth Assay” refers to an assay performed on semi-solid agar surface where the bacteria collectively move out from an inoculation point. To those skilled in the art, the act of bacteria collectively moving out from an inoculation point on a semi-solid surface may be referred to as swarming or a spreading biofilm. (Anderson, et al Microbiology, 2003, 149, 37-46; Daniels, et al. FEMS Microbiology Reviews, 2004, 28, 261-289). The procedure to perform this assay is described in detail in the Examples. This type of surface motility by bacteria has been reported in the literature by those skilled in the art. […] These references are incorporated herein by reference in their entirety.
(§2) The biofilm growth assay was carried out to measure swarming or biofilm spreading on semi-solid agar media in round plates (for example, 100×15 mm), also referred to as Petri dishes. For E. coli, the plates contained LB medium with 0.6% agar and 0.5% glucose. P. aeruginosa plates were made with M8 agar supplemented with 0.2% glucose, 100 μM CaCl2, 1 mM MgSO4, and 0.5% Casamino acids. The agar plates of this assay consisted of 0.4% to 0.7% agar (Bacto or Noble agar), although other media may also be used as described in the literature and known to those skilled in the art. Test compounds at the desired concentration were added to the cooled, autoclaved media. Portions of the media were then poured into the plates (20 mL/plate), and the plates allowed to dry at room temperature for approximately 3 to 4 hours. Alternatively, however, plates may be dried in a laminar flow hood for approximately fifteen to twenty minutes. Overnight cultures were grown in a 37° C. shaker in LB (E. coli) or TSB (P. aeruginosa). Plates were inoculated by placing 5 μL of the appropriate overnight culture in the centers of the plates. The plates then were incubated overnight at 37° C. The area of the zone of spreading bacteria was then measured and replicates are averaged. Percent inhibition was calculated as 100×(area without compound−area with compound)/(area without compound). An active compound was considered that which reduces the area of the spreading biofilm compared to negative controls by greater than or equal to 85%. The values shown in Table 1 are the concentrations of compounds (μg/ml) tested in the biofilm growth assay that reduce the area of the spreading biofilm compared to negative controls by greater than or equal to 85% unless noted differently in Table 1. A > (“greater than” symbol) as used in Table 1 is well understood to those skilled in the art as an indication that the listed concentration was not effective at this concentration.
(§3) All of the compounds shown in Tables 2, 3, 4, and 5, below, were prepared semi-synthetically from oleanolic acid, except for Compounds 2 and 3. Compound 2 was prepared from ursolic acid. Compound 3 was prepared from hederagenin, but could also be prepared from an oleanolic acid analog with a hydroxyl at C23 or C24. These compounds were tested in the spreading biofilm assay according to the methods detailed in Example I, above. The values shown in Tables 2, 3, 4, and 5 are the concentrations of compounds tested in the biofilm growth assay that reduce the area of the spreading biofilm compared to negative controls by greater than or equal to 85%.

E. coli biofilms = assay: Biofilm growth assay (spreading biofilm on semi-solid agar), E. coli; format: cell-based; details: biofilm growth assay, overnight 37° C., vs negative controls, Tables 1-5; for IC85: Escherichia coli, read-out: E. coli: concentration that reduces the area of the spreading biofilm by greater than or equal to 85%
From the text: as §1, §2, §3

[1] = biofilm growth assay, overnight 37° C., vs negative controls, Tables 1-5

SMILES | IC85 (P. aeruginosa biofilms; [1]) | IC85 (E. coli biofilms) | P. aeruginosa: concentration that reduces the area of the spreading biofilm by greater than or equal to 85% (P. aeruginosa biofilms; [1]) | E. coli: concentration that reduces the area of the spreading biofilm by greater than or equal to 85% (E. coli biofilms) | IC85 (P. aeruginosa biofilms)
C[C@@H]1CC[C@]2(C(=O)O)CC[C@]3(C)C(=CCC4[C@@]5(C)C[C@H](CO)[C@H](O)C(C)(C)C5CC[C@]43C)C2[C@H]1C (stereo partly drawn) [A] | 8 µg/mL (≈ 16.4 µM) | > 8 µg/mL |  |  | 
C[C@@H]1CC[C@]2(C(=O)O)CC[C@]3(C)C(=CCC4[C@@]5(C)C[C@H](CO)[C@H](O)C(C)(C)C5CC[C@]43C)C2[C@H]1C (stereo partly drawn) [B] |  |  | 4 µg/mL | 8 µg/mL | 
C=C(C)[C@@H]1CC[C@]2(CO)CC[C@]3(C)[C@H](CC[C@@H]4[C@@]5(C)CC[C@H](O)C(C)(C)[C@@H]5CC[C@]43C)[C@@H]12 [Betulin, reference compound] | 16 µg/mL (≈ 36.1 µM) | > 16 µg/mL |  |  | 
C=C(C)[C@@H]1CC[C@]2(C(=O)O)CC[C@]3(C)[C@H](CC[C@@H]4[C@@]5(C)CC[C@H](O)C(C)(C)[C@@H]5CC[C@]43C)[C@@H]12 [Betulinic acid, reference compound] | > 16 µg/mL | > 16 µg/mL |  |  | 
CC1(C)CC[C@]2(C(=O)O)CC[C@]3(C)C(=CCC4[C@@]5(C)Cc6cc[nH]c6C(C)(C)C5CC[C@]43C)C2C1 (stereo partly drawn) [C] | 0.5 µg/mL (≈ 1.05 µM) | 0.5 µg/mL (≈ 1.05 µM) |  |  | 
CC1(C)CC[C@]2(c3cc(N)[nH]n3)CC[C@]3(C)C(=CCC4[C@@]5(C)Cc6c(n[nH]c6N)C(C)(C)C5CC[C@]43C)C2C1 (stereo partly drawn) [Compound 60, (4aS,6aS,6bR,13aR)-4-a-(5-Amino-1H-pyrazol-3-yl)-2,2,6a,6b,9,9,13a-heptamethyl-2,3,4,4a,5,6,6a,6b,7,8,8a,9,11,13,13a,13b,14,15b-octadecahydro-1H-chryseno[1,2-f]indazol-12-amine] |  |  | 0.5 µg/mL | 1 µg/mL | 
CC1(C)CC[C@]2(CN)CC[C@]3(C)C(=CCC4[C@@]5(C)Cc6c(n[nH]c6N)C(C)(C)C5CC[C@]43C)C2C1 (stereo partly drawn) [Compound 63, (4aS,6aS,6bR,13aR)-4-a-(Aminomethyl)-2,2,6a,6b,9,9,13a-heptamethyl-2,3,4,4a,5,6,6a,6b,7,8,8a,9,11,13,13a,13b,14,15b-octadecahydro-1H-chryseno[1,2-f]indazol-12-amine] | 4 µg/mL (≈ 8.35 µM) | 1 µg/mL (≈ 2.09 µM) |  |  | 
CC1(C)CC[C@]2(C(=O)NO)CC[C@]3(C)C(=CCC4[C@@]5(C)Cc6c(n[nH]c6N)C(C)(C)[C@@H]5CC[C@]43C)[C@@H]2C1 (stereo partly drawn) [Compound 65, (4aS,6aS,6bR,13aR)-12-Amino-N-hydroxy-2,2,6a,6b,9,9,13a-heptamethyl-2,3,4,4a,5,6,6a,6b,7,8,8a,9,11,13,13a,13b,14,15b-octadecahydro-1H-chryseno[1,2-f]indazole-4-a-carboxamide] | 0.25 µg/mL (≈ 0.491 µM) | 0.25 µg/mL (≈ 0.491 µM) |  |  | 
CC1(C)CC[C@]2(C(=O)Nc3cc(O)[nH]n3)CC[C@]3(C)C(=CCC4[C@@]5(C)Cc6c(n[nH]c6N)C(C)(C)C5CC[C@]43C)C2C1 (stereo partly drawn) [Compound 66, (4aS,6aS,6bR,13aR)-12-Amino-N-(5-hydroxy-1H-pyrazol-3-yl)-2,2,6a,6b,9,9,13a-heptamethyl-2,3,4,4a,5,6,6a,6b,7,8,8a,9,11,13,13a,13b,14,15b-octadecahydro-1H-chryseno[1,2-f]indazole-4-a-carboxamide] | 0.25 µg/mL (≈ 0.435 µM) | 1 µg/mL (≈ 1.74 µM) |  |  | 
CC1(C)CC[C@]2(c3nnco3)CC[C@]3(C)C(=CCC4[C@@]5(C)Cc6c(n[nH]c6N)C(C)(C)C5CC[C@]43C)C2C1 (stereo partly drawn) [Compound 67, (4aS,6aS,6bR,13aR)-2,2,6a,6b,9,9,13a-Heptamethyl-4-a-(1,3,4-oxadiazol-2-yl)-2,3,4,4a,5,6,6a,6b,7,8,8a,9,11,13,13a,13b,14,15b-octadecahydro-1H-chryseno[1,2-f]indazol-12-amine] |  |  | 1 µg/mL | 2 µg/mL | 
CC1(C)CC[C@]2(c3cc(O)[nH]n3)CC[C@]3(C)C(=CCC4[C@@]5(C)Cc6c(n[nH]c6N)C(C)(C)[C@@H]5CC[C@]43C)[C@@H]2C1 (stereo partly drawn) [Compound 68, 3-((4aS,6aS,6bR,13aR)-12-Amino-2,2,6a,6b,9,9,13a-heptamethyl-2,3,4,4a,5,6,6a,6b,7,8,8a,9,11,13,13a,13b,14,15b-octadecahydro-1H-chryseno[1,2-f]indazol-4-a-yl)-1H-pyrazol-5-ol] | 0.5 µg/mL (≈ 0.94 µM) | 0.5 µg/mL (≈ 0.94 µM) |  |  | 
CC1(C)CC[C@]2(C(=O)Sc3nnc(N)[nH]3)CC[C@]3(C)C(=CCC4[C@@]5(C)Cc6c(n[nH]c6N)C(C)(C)C5CC[C@]43C)C2C1 (stereo partly drawn) [Compound 70, (4aS,6aS,6bR,13aR)—S-5-Amino-4H-1,2,4-triazol-3-yl12-amino-2,2,6a,6b,9,9,13a-heptamethyl-2,3,4,4a,5,6,6a,6b,7,8,8a,9,11,13,13a,13b,14,15b-octadecahydro-1H-chryseno[1,2-f]indazole-4-a-carbothioate] | 0.5 µg/mL (≈ 0.845 µM) | 2 µg/mL (≈ 3.38 µM) |  |  | 
CC1(C)CC[C@]2(C(=O)Nc3nnc(N)s3)CC[C@]3(C)C(=CCC4[C@@]5(C)Cc6c(n[nH]c6N)C(C)(C)C5CC[C@]43C)C2C1 (stereo partly drawn) [Compound 71, (4aS,6aS,6bR,13aR)-12-Amino-N-(5-amino-1,3,4-thiadiazol-2-yl)-2,2,6a,6b,9,9,13a-heptamethyl-2,3,4,4a,5,6,6a,6b,7,8,8a,9,11,13,13a,13b,14,15b-octadecahydro-1H-chryseno[1,2-f]indazole-4-a-carboxamide] | 0.5 µg/mL (≈ 0.845 µM) | 2 µg/mL (≈ 3.38 µM) |  |  | 
CC1(C)CC[C@]2(C(=O)n3ccnc3N)CC[C@]3(C)C(=CCC4[C@@]5(C)Cc6c(n[nH]c6N)C(C)(C)C5CC[C@]43C)C2C1 (stereo partly drawn) [Compound 73, (2-Amino-1H-imidazol-1-yl)((4aS,6aS,6bR,13aR)-12-amino-2,2,6a,6b,9,9,13a-heptamethyl-2,3,4,4a,5,6,6a,6b,7,8,8a,9,11,13,13a,13b,14,15b-octadecahydro-1H-chryseno[1,2-f]indazol-4-a-yl)methanone] | 1 µg/mL (≈ 1.79 µM) | 1 µg/mL (≈ 1.79 µM) |  |  | 
CC1(C)CC[C@]2(C(=O)Nc3nnc(S)s3)CC[C@]3(C)C(=CCC4[C@@]5(C)Cc6c(n[nH]c6N)C(C)(C)C5CC[C@]43C)C2C1 (stereo partly drawn) [Compound 74, (4aS,6aS,6bR,13aR)-12-Amino-N-(5-mercapto-1,3,4-thiadiazol-2-yl)-2,2,6a,6b,9,9,13a-heptamethyl-2,3,4,4a,5,6,6a,6b,7,8,8a,9,11,13,13a,13b,14,15b-octadecahydro-1H-chryseno[1,2-f]indazole-4-a-carboxamide] | 1 µg/mL (≈ 1.64 µM) | > 2 µg/mL |  |  | 
C[C@H]1[C@H](C)CC[C@]2(C(=O)O)CC[C@]3(C)C(=CC[C@@H]4[C@@]5(C)C[C@@H](O)[C@H](O)C(C)(C)[C@@H]5CC[C@]43C)[C@H]12 [Corosolic acid, reference compound] | 4 µg/mL (≈ 8.46 µM) |  |  |  | 
CC1(C)CC[C@]2(C(=O)O)CC[C@]3(C)C(=CC[C@@H]4[C@@]5(C)C[C@@H](O)[C@H](O)C(C)(C)[C@@H]5CC[C@]43C)[C@@H]2C1 [Maslinic acid, reference compound] |  |  |  |  | 4 µg/mL (≈ 8.46 µM)
C[C@@H]1CC[C@]2(C)CC[C@]3(C)C(=CCC4[C@@]5(C)CC[C@H](O)C(C)(C)C5CC[C@]43C)C2[C@H]1C (stereo partly drawn) [alpha-Amyrin, reference compound] | > 32 µg/mL |  |  |  | 
